# According to US9730979B2, “Methods for decreasing set in inhibiting protein phosphatase 2A (PP2A) and/or increasing the activity of cyclin-dependent kinase 5 (CDK5) by an APOE peptide” (COGNOSCI, INC., priority 2006, dated 2017):
# Tests used:
# PP2A = PP2A activity (rate of phosphate release) of PP2A immunoprecipitated from treated RAW cells; assay type: cell-based, mouse; details: 10 nM okadaic acid alone, 1 hour
# Method: Mouse macrophagic RAW cells were incubated with either 100 ng/mL LPS, 1 μM COG 112 (COG 133 conjugated to antennapedia), LPS and COG 112, 10 nM okadaic acid (an inhibitor of PP2A), or okadaic acid and COG 112. After 1 hour, cells were lysed and PP2A was immunoprecipitated by adding an antibody targeted to the catalytic C-subunit of PP2A. Half of the immunoprecipitate was separated by SDS-PAGE, blotted on to nitrocellulose, and probed with an anti-PP2AC antibody. The remaining portion was assayed for activity by adding 125 μL assay cocktail containing a phospho-threonine substrate peptide to the immunoprecipitated enzyme. After incubating at 37° C. with shaking, a 25 μL aliquot was removed and added to an ammonium molybdate solution (Upstate) that chelates free phosphate and changes color upon chelate formation. Aliquots were removed at various time intervals and the amount of free phosphate released from the peptide was determined by comparison to a phosphate standard curve. The rate of phosphate release was determined by linear fit to the time course data and was normalized to the relative PP2A concentration. PP2A activity, measured by the rate of phosphate release, is increased in the presence of COG 112 (FIG. 8), as would be expected if SET inhibition of PP2A was eliminated by binding of COG112 to SET. […]
# tau = experiment: Okadaic acid induced phospho-tau (AT-8) in mouse cortex; assay type: in vivo, C57B1/6 mice
# Method: C57B1/6 mice were injected intravenously with increasing concentrations of okadaic acid (OA) (calculated by administration of a sufficient quantity of OA to produce the indicated μM concentration in a blood volume of 2 mL). One hour after OA was administered, mice were euthanized by decapitation and the brain removed. The cortex was isolated, flash frozen with liquid nitrogen, ground to a fine powder and an extract made by homogenization of the powder in an extraction buffer containing protease and phosphatase inhibitors. Protein extracts were separated by SDS-PAGE, transferred to nitrocellulose membranes, and probed for phospho-tau using the AT-8 antibody that recognizes phosphorylation of Ser202 and Thr205 of tau. Phospho-tau signals were normalized to signals from GAPDH protein. […] To determine the effect of COG peptides on the phosphorylation status of the tau protein, 5 mg/kg of COG 1410 was administered to the mice by subcutaneous injection 15 minutes prior to OA administration. FIG. 11B depicts the results of this series of experiments.
# SET bound to P35 [1] = molecular target: T1, SET bound to P35 (Mus musculus, UniProt Q9EQU5); experiment: Co-precipitation of SET with immunoprecipitated p35 from mouse brain lysate; assay type: binding; details: 50 μM peptide, SET normalized to P35
# SET, sequence (Q9EQU5 37-289 limits assumed): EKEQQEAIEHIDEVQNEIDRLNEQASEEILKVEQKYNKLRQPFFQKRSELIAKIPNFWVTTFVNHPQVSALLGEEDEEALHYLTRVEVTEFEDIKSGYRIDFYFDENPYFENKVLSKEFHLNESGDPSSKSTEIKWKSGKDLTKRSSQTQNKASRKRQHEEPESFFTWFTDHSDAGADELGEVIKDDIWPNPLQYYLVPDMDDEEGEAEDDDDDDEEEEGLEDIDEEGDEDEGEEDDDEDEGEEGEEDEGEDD
# T1 construct: from tissue; host or cells: mouse brain lysate
# T1 sequence (Q9EQU5 2-289 limits assumed): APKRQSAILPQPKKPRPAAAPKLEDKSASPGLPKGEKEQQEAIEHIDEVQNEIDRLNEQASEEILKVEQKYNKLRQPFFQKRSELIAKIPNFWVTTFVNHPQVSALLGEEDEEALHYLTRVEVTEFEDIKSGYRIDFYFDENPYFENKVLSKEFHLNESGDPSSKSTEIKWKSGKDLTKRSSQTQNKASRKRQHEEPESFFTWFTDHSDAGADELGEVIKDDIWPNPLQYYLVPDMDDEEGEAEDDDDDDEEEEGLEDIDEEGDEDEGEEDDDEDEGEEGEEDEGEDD
# Method: (§1) FIG. 12. Mouse brain lysate was incubated with 50 μM of each of the peptides indicated. P35 was subsequently immunoprecipitated from 1 mg of the peptide-treated lysate. Western blots were performed to measure co-precipitation of SET protein (left panel). […] Signals from SET were normalized to signals for P35 protein. Results with COG 133 are not shown and were inconclusive possibly due to unequal protein loading.
# (§2) Cdk5 requires the activator protein p35 for kinase activity. Although cdk5 is ubiquitously expressed, p35 expression is restricted to neurons of the central nervous system, thus limiting cdk5 associated kinase activity to these neurons. Cleavage of p35 to p25 disregulates cdk5 kinase activity causing the kinase to become constitutively active. Constitutive kinase activity of cdk5/p25 has been implicated in the aberrant hyperphosphorylation of tau protein and subsequent neurodegeneration found in Alzheimer's disease and other tauopathies. […] Therefore, it may be possible to reduce cdk5 kinase activity by interfering with the interaction between SET and the cdk5/p35 complex. To test this possibility, the effects of COG peptides on the binding of SET to p35 were examined. Mouse brain lysates (FIG. 12) or human brain lysates (FIG. 13) were incubated with 50 μM of COG 056 (reverse sequence of COG133), COG 112, COG133, or COG 1410. […]
# [2] = relative to COG 133; cited from earlier work
# SET from human brain = molecular target: T2, SET from human brain (Homo sapiens, UniProt Q01105); experiment: Biotinylated COG 133 pull-down of SET from human brain extract, competition with excess peptide; assay type: binding
# T2 construct: pulls down SET from human brain extracts; from tissue; host or cells: human brain homogenate
# T2 sequence (Q01105 whole entry): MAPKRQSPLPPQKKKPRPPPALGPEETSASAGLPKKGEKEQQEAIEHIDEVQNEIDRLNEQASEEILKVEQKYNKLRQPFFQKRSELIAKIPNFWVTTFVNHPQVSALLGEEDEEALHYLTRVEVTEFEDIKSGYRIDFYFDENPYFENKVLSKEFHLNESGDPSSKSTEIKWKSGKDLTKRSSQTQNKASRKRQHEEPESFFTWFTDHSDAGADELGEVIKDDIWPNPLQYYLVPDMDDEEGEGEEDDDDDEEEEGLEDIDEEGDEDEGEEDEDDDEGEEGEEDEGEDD
# Method: Human brain was homogenized in PBS buffer with a protease cocktail tablet and centrifuged to remove cellular debris. 100 ng of biotinylated COG 133 (COG 133 peptide with biotin attached to the N-terminus) was added to 1 mg of clarified supernatant. After 4 hours of incubation at room temperature, 50 μL of a 50% slurry of streptavidin agarose beads were added. After an additional hour of incubation, the beads were pelleted by centrifugation. The beads were washed 3 times with PBS buffer containing 0.1% tween 20 detergent. 50 μL of a 2×SDS PAGE loading buffer (containing DTT) were added to the washed beads and the samples were boiled for 2 minutes. Polyacrylamide gels were loaded with either 40 μL of extract per lane or 10 μg of total brain extract protein (control lane) and run in SDS buffer. […] Membranes were then probed with an anti-SET antibody. Blots were developed with Enhanced Chemiluminescence substrates (GE healthcare) and visualized by exposure to film.
# In a related experiment, derivatives of the COG 133 peptide were tested for SET binding. Human brain extracts were prepared as described above. A 10-fold excess of COG 1410 or COG 112 peptide was added to the brain extract and incubated for 10 minutes. Next, 100 ng of biotinylated COG 133 was added to the extract and incubated for four hours at room temperature. […]
# SET bound to P35 [3] = molecular target: T3, SET bound to P35 (Homo sapiens, UniProt Q01105); experiment: Co-precipitation of SET with immunoprecipitated p35 from human brain lysate; assay type: binding; details: 50 μM peptide, SET normalized to P35
# T3 construct: from tissue; host or cells: human brain lysate
# T3 sequence (Q01105 2-290 limits assumed): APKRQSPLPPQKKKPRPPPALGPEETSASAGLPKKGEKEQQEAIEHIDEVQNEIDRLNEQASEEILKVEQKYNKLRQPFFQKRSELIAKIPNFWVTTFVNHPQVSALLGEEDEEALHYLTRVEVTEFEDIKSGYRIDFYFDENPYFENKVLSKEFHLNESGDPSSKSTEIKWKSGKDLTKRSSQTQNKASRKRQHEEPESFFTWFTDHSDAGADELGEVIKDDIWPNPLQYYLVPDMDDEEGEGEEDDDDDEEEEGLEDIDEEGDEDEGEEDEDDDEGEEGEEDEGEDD
# Method: as §1, with “13. Human” for “12. Mouse”, “protein.” for “protein. Results with COG 133 are not shown and were inconclusive possibly due to unequal protein loading.”
# as §2, with “1410. Activator protein p35 was immunoprecipitated with an anti-p35 antibody and protein A agarose beads from 1 mg of the peptide-treated brain lysates.” for “1410.”
# [4] = tested on: extracellular regulated kinase (ERK) 1/2; experiment: LPS-induced phosphorylation of ERK 1/2 in BV2 microglia, western blot; assay type: cell-based, mouse; details: LPS plus peptide, 30 minutes
# Method: (§3) Mouse BV2 microglia were incubated with either a negative control, LPS, or LPS and COG 133 (SEQ ID NO: 1) peptide for 30 minutes. Cells were lysed and a clarified extract prepared by centrifugation. Polyacrylamide gels were loaded with 30 μg of extract per lane and run in SDS buffer. […] Membranes were then probed with phospho-specific p38 MAP kinase, MKK 3/6, JNK, ERK, and IκB antibodies. Membranes were developed with Enhanced Chemiluminescence substrates (GE healthcare) and visualized by exposure to film. Membranes were then stripped and reprobed for total p38, JNK, Erk or IκB using non phospho-specific antibodies as previously described. In some experiments, the membranes were probed for GAPDH protein. Densitometry analysis of the western blots was conducted and the signals from phosphorylated p38 MAP kinase were normalized to those from GAPDH. […] PP2A has been reported to bind and dephosphorylate p38 MAP kinase (Sundaresan & Farndale 2002 FEBS Letters 528, 139). Given that COG peptides can increase PP2A activity (Example 5), it is likely that the dephosphorylation of p38 MAP kinase occurs through the activation of PP2A by COG binding to SET.
# [5] = tested on: c-Jun N-terminal kinase (JNK); experiment: LPS-induced phosphorylation of JNK in BV2 microglia, western blot; assay type: cell-based, mouse; details: LPS plus peptide, 30 minutes
# Method: as §3
# BV2 cells [6] = experiment: LPS-induced nitric oxide production in BV2 cells with and without siRNA to SET; assay type: cell-based, mouse; details: BV2 cells transfected with siRNA to SET
# Method: See PCT application PCT/US05/31431 which claims priority to U.S. Provisional Applications 60/606,506, filed Sep. 2, 2004, 60/608,148, filed Sep. 9, 2004, and 60/606,507, filed Sep. 2, 2004 which are herein incorporated by reference in their entireties. BV2 cells were transfected with siRNA to SET. BV2 cells transfected with the siRNA and BV2 cells not transfected with the siRNA were treated with COG 133, LPS, or LPS and COG 133 as described in the above-referenced patent applications. Untreated BV2 cells were used as a control. FIG. 3 is a graph of the results. Bars three and seven correspond to LPS without siRNA to SET and with siRNA to SET, respectively. […] Similarly, there is a reduction in nitric oxide in the group treated with LPS and COG 133 and transfected with siRNA to SET compared to the group treated with LPS and COG 133 and not transfected with siRNA (lanes 8 and 4, respectively).
# IκB = experiment: LPS-induced phosphorylation of IκB in BV2 microglia, western blot; assay type: cell-based, mouse; details: LPS plus peptide, 30 minutes
# Method: as §3
# p38 MAP kinase = experiment: LPS-induced phosphorylation of p38 MAP kinase in BV2 microglia, western blot; assay type: cell-based, mouse; details: LPS plus peptide, 30 minutes, normalized to GAPDH
# Method: as §3
# BV2 cells [7] = details: without siRNA; previously shown; cited from earlier work
# human THP1 cells = experiment: LPS-induced TNFα production in human THP1 cells with and without siRNA to SET; assay type: cell-based; details: SET removed by siRNA-based silencing
# Text: Consistent with the mechanism of SET as an inhibitor of Protein Phosphatase 2A (PP2A), a reduction of the LPS-induced TNF response as well as elimination of the effect of COG 133 was observed when SET was removed from the cells.
# NFκB = experiment: Nuclear NFκB in LPS-stimulated colonic epithelial cells, gel shift with radiolabeled oligonucleotide; assay type: cell-based; details: nuclear extracts
# Method: In the dephosphorylated state, IκB binds to the transcription factor NFκB and prevents it from translocating to the nucleus to activate transcription of pro-inflammatory cytokines. […] A radiolabeled oligonucleotide containing a NFκB binding site was added to the proteins from the nuclear extracts and the proteins were subsequently separated by non-denaturing polyacrylamide gel electrophoresis. The amount of NFκB present in the nuclear extracts was detected by autoradiography (FIG. 10D). Nuclear NFκB was reduced in the presence of COG 133 providing further evidence that this signal transduction cascade is suppressed in cells treated with ApoE peptides.
compound,measurement,setting,value
"C=C1[C@@H](O)[C@@H]2O[C@]3(CC[C@H](/C=C/[C@@H](C)[C@@H]4CC(C)=C[C@@]5(O[C@H](C[C@@](C)(O)C(=O)O)CC[C@H]5O)O4)O3)CC[C@H]2O[C@@H]1[C@@H](O)C[C@H](C)[C@H]1O[C@@]2(CCCCO2)CC[C@H]1C [okadaic acid, reference compound]",baseline PP2A activity,PP2A,decrease in baseline PP2A activity
same,phospho-tau in the cortex,"tau; okadaic acid intravenously, increasing concentrations, one hour, normalized to GAPDH",concentration-dependent increase
Ac-AS-Aib-LRKL-Aib-KRLL-NH2 [COG 1410],amount of SET bound to P35,SET bound to P35 [1],reduce the amount of SET bound to P35
same,gain in therapeutic window as compared to COG 133,[2],4 fold
same,SET protein pulled down with biotinylated COG 133,"SET from human brain; 10-fold excess of competitor peptide, human brain extract",reduces the amount of SET protein pulled down
same,phosphorylated tau protein induced by OA,"tau; mouse, in vivo",reduced the amount of phosphorylated tau protein
same,competition with biotinylated COG 133 for binding to SET,"SET; BV2 cells, anti-SET western blot",competes with COG 133 in binding to SET
same,amount of SET bound to P35,SET bound to P35 [3],reduce the amount of SET bound to P35
LRVRLASHLRKLRKRLL [COG 133],LPS-induced phosphorylation of ERK,[4],reduces the LPS-induced phosphorylation
same,LPS-induced phosphorylation of JNK,[5],reduces the LPS-induced phosphorylation
same,"nitric oxide, LPS+COG 133+siRNA versus LPS+siRNA",BV2 cells [6],not a significant difference
same,LPS-induced phosphorylation of IκB,IκB,reduces the LPS-induced phosphorylation
same,phosphorylation of p38 MAP kinase,p38 MAP kinase,decrease in phosphorylation
same,LPS-induced nitric oxide production,BV2 cells [7],reduce LPS-induced nitric oxide production
same,effect in reducing LPS-induced TNFα production,human THP1 cells,eliminated
same,nuclear NFκB,NFκB,reduced
same,amount of SET bound to P35,SET bound to P35 [3],reduce the amount of SET bound to P35
biotinylated COG 133 [reference compound],binding to SET,"SET from human brain; 100 ng peptide in 1 mg human brain supernatant, streptavidin pull-down",binds to and pulls down SET
same,binding to SET,SET,uniquely bind
